Reference: the NIST ThermoML archive (doi:10.1021/je800157v)
Numbers after ± are expanded uncertainties.

What was measured:
[1] = 101 kPa, Liquid
[2] = xn = mol fraction of the nth substance listed; details: 101 kPa, Liquid

Structure (SMILES) | mass density ([1]; 288.15 K) | mass density ([1]; 293.15 K) | mass density ([1]; 298.15 K) | mass density ([1]; 303.15 K) | mass density ([1]; 308.15 K) | mass density ([1]; 313.15 K) | further results
c1ccccc1 [benzene] | 884.25 ± 0.31 kg/m3 | 878.92 ± 0.31 kg/m3 | 873.58 ± 0.32 kg/m3 | 868.23 ± 0.33 kg/m3 | 862.87 ± 0.34 kg/m3 | 857.5 ± 0.35 kg/m3 | –
c1ccccc1 [benzene] + CCC(C)O | – | – | – | – | – | – | mass density ([2]; 288.15 K, x2 = 0): 884.25 ± 0.31 kg/m3; mass density ([2]; 293.15 K, x2 = 0): 878.92 ± 0.31 kg/m3; mass density ([2]; 298.15 K, x2 = 0): 873.58 ± 0.32 kg/m3; mass density ([2]; 303.15 K, x2 = 0): 868.23 ± 0.33 kg/m3; mass density ([2]; 308.15 K, x2 = 0): 862.87 ± 0.34 kg/m3; mass density ([2]; 313.15 K, x2 = 0): 857.5 ± 0.35 kg/m3
CCC(C)O (stereo not given) [butan-2-ol] | 810.64 ± 0.55 kg/m3 | 806.59 ± 0.56 kg/m3 | 802.47 ± 0.56 kg/m3 | 798.27 ± 0.57 kg/m3 | 793.97 ± 0.57 kg/m3 | 789.59 ± 0.58 kg/m3 | –
CCC(C)O (stereo not given) [butan-2-ol] + ClC(Cl)Cl | – | – | – | – | – | – | mass density ([2]; 288.15 K, x1 = 1): 810.64 ± 0.55 kg/m3; mass density ([2]; 293.15 K, x1 = 1): 806.59 ± 0.56 kg/m3; mass density ([2]; 298.15 K, x1 = 1): 802.47 ± 0.56 kg/m3; mass density ([2]; 303.15 K, x1 = 1): 798.27 ± 0.57 kg/m3; mass density ([2]; 308.15 K, x1 = 1): 793.97 ± 0.57 kg/m3; mass density ([2]; 313.15 K, x1 = 1): 789.59 ± 0.58 kg/m3
ClC(Cl)Cl [trichloromethane] | 1498.08 ± 0.92 kg/m3 | 1488.64 ± 0.91 kg/m3 | 1479.15 ± 0.89 kg/m3 | 1469.61 ± 0.88 kg/m3 | 1460.03 ± 0.86 kg/m3 | 1450.41 ± 0.85 kg/m3 | –
